Data from patent US10898540B2, “Peptide having effects of increasing telomerase activity and extending telomere, and composition containing same” (GEMVAX & KAEL CO., LTD., priority 2016, dated 2021).

Assays:
telomerase = experiment: Telomerase activity (TeloTAGGG telomerase PCR ELISA, RTA) in brain tissue of 3xTg-AD mice after subcutaneous administration; type: in vivo, mouse; conditions: for increase of telomerase activity compared with saline-administered group (Group 1): s.c. three times a week for 2 months, whole brain tissue at age 15 months
From the text: (§1) To test the PEP1 therapeutic effect on Alzheimer's disease, Alzheimer transgenic mice (3×Tg-AD) were purchased from Jackson Laboratory.
(§2) To investigate the effect of PEP1 according to concentration after breeding, experimental animals were divided and then administered experimental materials as follows. As a positive control material, donepezil was used, the experimental animals were divided into five groups, and each group included 10 mice. Administered materials and doses per group are as follows. • Group 1: Saline • Group 2: 0.01 mg/kg ofPEP1 • Group 3: 0.1 mg/kg of PEP1 • Group 4: 1 mg/kg of PEP1 • Group 5: 1 mg/kg of donepezil
(§3) PEP1, saline and donepezil were subcutaneously injected at each concentration three times a week for 2 months from the 12th month, one month later (at the age of 15 months), the mice (10 mice per group) were anesthetized, and reperfusion was carried out through the heart of each mouse using 0.9% saline to remove blood. Afterward, the brain was extracted, and separated into the hippocampus and the whole brain area, thereby obtaining brain tissue, and the tissue was rapidly frozen using liquid nitrogen.
To investigate PEP1-induced telomerase activity, TeloTAGGG telomerase PCR ELISAPLUS (Cat #12 013 789 001, Roche Boehringer-Mannheim, IN, USA) was used, the entire brain tissues prepared according to the method of Example 2-1 were pulverized, 200 μl of an ice-cold lysis buffer was added to […] of the tissue, incubated on ice for 30 minutes, and centrifuged at 16,000×g for 20 minutes to isolate 175 μl of a protein. 10 μg of the protein was quantified and mixed with a reaction mixture and an internal standard, followed by PCR (see FIG. 4). Hybridization was carried out, a sample was added to a specially-coated MP module to perform a reaction, and then absorbance was measured at 450 or 690 nm using an ELISA reader. Relative telomerase activities (RTAs) were calculated using a calculation formula (see FIG. 3).

telomere = experiment: Telomere length (TeloTAGGG telomere length assay, Southern blot) in brain tissue of 3xTg-AD mice after subcutaneous administration; type: in vivo, mouse; conditions: 3xTg-AD mice, 0.01, 0.1 and 1 mg/kg s.c. three times a week for 2 months, whole brain tissue, FIG. 2
From the text: as §1, §2
as §3, with “nitrogen. […]” for “nitrogen.”

EARPALLTSRLRFIPK (hTERT derived peptide fragment) [PEP1, hTERT-derived peptide consisting of 16 amino acids, telomerase location [611-626], made by Fmoc solid phase synthesis]
increase of telomerase activity compared with saline-administered group (Group 1) (telomerase; 0.1 mg/kg (Group 3)): 266% | increase of telomerase activity compared with saline-administered group (Group 1) (telomerase; Group 4 (dose printed as 'mg/kg'; Group 4 = 1 mg/kg)): 370% | telomerase activity compared with donepezil-administered group (Group 5) (telomerase; Group 4 vs donepezil Group 5, s.c. three times a week for 2 months, FIG. 1): statistically significant increase | telomere length (telomere): increased according to PEP1 administration concentration
